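How tested: cells in 96-well plates exposed to compound for 48 hours at five concentrations. At the GI50, growth is halved. TGI is the concentration that stops growth completely.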
How the values were obtained:
Assay in all cases: NCI anticancer screen, dose series, 48 h
MDA-MB-435 = test system: MDA-MB-435
KM12 colon = test system: KM12 colon
EKVX NSCLC = test system: EKVX NSCLC
K-562 leukemia = test system: K-562 leukemia
HCT-15 colon = test system: HCT-15 colon
HCT-116 colon = test system: HCT-116 colon
NCI-H522 lung = test system: NCI-H522 lung
MALME-3M melanoma = test system: MALME-3M melanoma
A498 renal = test system: A498 renal
U251 CNS = test system: U251 CNS
ACHN renal = test system: ACHN renal
MDA-N = test system: MDA-N
SN12C renal = test system: SN12C renal
IGROV1 ovarian = test system: IGROV1 ovarian
T-47D breast = test system: T-47D breast
SW-620 colon = test system: SW-620 colon
UACC-62 melanoma = test system: UACC-62 melanoma
HCC-2998 colon = test system: HCC-2998 colon
SK-MEL-2 melanoma = test system: SK-MEL-2 melanoma
CCRF-CEM leukemia = test system: CCRF-CEM leukemia
HS 578T breast = test system: HS 578T breast
A549 NSCLC = test system: A549 NSCLC
UACC-257 melanoma = test system: UACC-257 melanoma
CAKI-1 renal = test system: CAKI-1 renal
UO-31 renal = test system: UO-31 renal
BT-549 breast = test system: BT-549 breast
HOP-62 NSCLC = test system: HOP-62 NSCLC
NCI-H460 lung = test system: NCI-H460 lung
SR leukemia = test system: SR leukemia
RXF 393 renal = test system: RXF 393 renal
NCI-H226 lung = test system: NCI-H226 lung
OVCAR-3 ovarian = test system: OVCAR-3 ovarian
LOX IMVI melanoma = test system: LOX IMVI melanoma
OVCAR-4 ovarian = test system: OVCAR-4 ovarian
NCI-H23 lung = test system: NCI-H23 lung
HL-60(TB) leukemia = test system: HL-60(TB) leukemia
NCI/ADR-RES ovarian = test system: NCI/ADR-RES ovarian
M14 melanoma = test system: M14 melanoma
SK-MEL-28 melanoma = test system: SK-MEL-28 melanoma
MDA-MB-231 breast = test system: MDA-MB-231 breast
SK-MEL-5 melanoma = test system: SK-MEL-5 melanoma
MCF7 breast = test system: MCF7 breast
SNB-19 CNS = test system: SNB-19 CNS
TK-10 renal = test system: TK-10 renal
PC-3 prostate = test system: PC-3 prostate
SF-268 CNS = test system: SF-268 CNS
SNB-75 CNS = test system: SNB-75 CNS
OVCAR-8 ovarian = test system: OVCAR-8 ovarian
HOP-92 NSCLC = test system: HOP-92 NSCLC
SF-539 CNS = test system: SF-539 CNS
DU-145 prostate = test system: DU-145 prostate
HT29 colon = test system: HT29 colon
RPMI-8226 leukemia = test system: RPMI-8226 leukemia
MOLT-4 leukemia = test system: MOLT-4 leukemia
SK-OV-3 ovarian = test system: SK-OV-3 ovarian
OVCAR-5 ovarian = test system: OVCAR-5 ovarian
COLO 205 colon = test system: COLO 205 colon
SF-295 CNS = test system: SF-295 CNS
786-0 renal = test system: 786-0 renal

`NC(Cc1ccc(OCc2ccccc2)cc1)C(=O)NC(Cc1ccccc1)C(=O)Oc1c(Cl)c(Cl)c(Cl)c(Cl)c1Cl` (stereo not drawn) was tested, and the TGI (MDA-MB-435) was 33.9 µM, the TGI (KM12 colon) was 28.8 µM and the TGI (EKVX NSCLC) was 41.6 µM. It also gave a TGI (K-562 leukemia) greater than 100 µM, a TGI (HCT-15 colon) of 30.2 µM and a TGI (HCT-116 colon) of 31.3 µM. For the same compound, the TGI (NCI-H522 lung) was 42.3 µM, the TGI (MALME-3M melanoma) was 35.3 µM and the TGI (A498 renal) was 37.9 µM. The TGI (U251 CNS) was 31.2 µM, the TGI (ACHN renal) was 30.5 µM and the TGI (MDA-N) was 26.8 µM. The TGI (SN12C renal) was 32 µM, the TGI (IGROV1 ovarian) was 31.4 µM and the TGI (T-47D breast) was 37.1 µM. It also gave a TGI (SW-620 colon) of 31.7 µM, a TGI (UACC-62 melanoma) of 32.7 µM and a TGI (HCC-2998 colon) of 34 µM. It also gave a TGI (SK-MEL-2 melanoma) of 26.5 µM, a TGI (CCRF-CEM leukemia) greater than 100 µM and a TGI (HS 578T breast) of 31 µM. For the same compound, the TGI (A549 NSCLC) was 37.5 µM, the TGI (UACC-257 melanoma) was 32.8 µM and the TGI (CAKI-1 renal) was 30.7 µM. It also gave a TGI (UO-31 renal) of 30.4 µM, a TGI (BT-549 breast) of 32.7 µM and a TGI (HOP-62 NSCLC) of 30.5 µM. It also gave a TGI (NCI-H460 lung) of 30.5 µM, a TGI (SR leukemia) greater than 100 µM and a TGI (RXF 393 renal) of 28.3 µM. For the same compound, the TGI (NCI-H226 lung) was 26.5 µM, the TGI (OVCAR-3 ovarian) was 28.9 µM and the TGI (LOX IMVI melanoma) was 27.1 µM. The TGI (OVCAR-4 ovarian) was 35.5 µM, the TGI (NCI-H23 lung) was 30.6 µM and the TGI (HL-60(TB) leukemia) was greater than 100 µM. For the same compound, the TGI (NCI/ADR-RES ovarian) was 40.7 µM, the TGI (M14 melanoma) was 28.5 µM and the TGI (SK-MEL-28 melanoma) was 31.6 µM. It also gave a TGI (MDA-MB-231 breast) of 25.7 µM, a TGI (SK-MEL-5 melanoma) of 32.4 µM and a TGI (MCF7 breast) of 36 µM. The TGI (SNB-19 CNS) was 34 µM, the TGI (TK-10 renal) was 28.9 µM and the TGI (PC-3 prostate) was 32.4 µM. The TGI (SF-268 CNS) was 38.9 µM, the TGI (SNB-75 CNS) was 29.6 µM and the TGI (OVCAR-8 ovarian) was 31.8 µM. The TGI (HOP-92 NSCLC) was 25.8 µM, the TGI (SF-539 CNS) was 30.6 µM and the TGI (DU-145 prostate) was 27 µM. It also gave a TGI (HT29 colon) of 32.1 µM, a TGI (RPMI-8226 leukemia) greater than 100 µM and a TGI (MOLT-4 leukemia) greater than 100 µM. The TGI (SK-OV-3 ovarian) was 28.9 µM, the TGI (OVCAR-5 ovarian) was 31.1 µM and the TGI (COLO 205 colon) was 28.3 µM.
`COC(C)(C)[C@@H](O)[C@H](O)C[C@H](C)C1=C2CC[C@@H]3[C@@]4(C)CC[C@@H](OC(C)=O)C(C)(C)[C@@H]4C[C@@H](OC4OC(COC(C)=O)C(O)C(O)C4O)[C@@]3(C)[C@]2(C)CC1` (stereo partly drawn) was tested, and the GI50 (MDA-MB-435) was 12.3 µM, the TGI (MDA-MB-435) was 25.6 µM and the GI50 (KM12 colon) was 3.55 µM. The TGI (KM12 colon) was 18.9 µM, the GI50 (EKVX NSCLC) was 13 µM and the TGI (EKVX NSCLC) was 26.2 µM. For the same compound, the GI50 (K-562 leukemia) was 6.06 µM, the TGI (K-562 leukemia) was 22.3 µM and the GI50 (HCT-15 colon) was 11 µM. The TGI (HCT-15 colon) was 23.8 µM, the GI50 (HCT-116 colon) was 6.09 µM and the TGI (HCT-116 colon) was 19.2 µM. For the same compound, the GI50 (NCI-H522 lung) was 12.2 µM, the TGI (NCI-H522 lung) was 25.2 µM and the GI50 (MALME-3M melanoma) was 15.2 µM. For the same compound, the TGI (MALME-3M melanoma) was 29.4 µM, the GI50 (A498 renal) was 14.2 µM and the TGI (A498 renal) was 27.6 µM. For the same compound, the TGI (U251 CNS) was 22.5 µM, the GI50 (ACHN renal) was 10.4 µM and the TGI (ACHN renal) was 22.2 µM. It also gave a GI50 (MDA-N) of 11.8 µM, a TGI (MDA-N) of 24.6 µM and a GI50 (SN12C renal) of 13.4 µM. For the same compound, the TGI (SN12C renal) was 26.4 µM, the GI50 (IGROV1 ovarian) was 13.1 µM and the TGI (IGROV1 ovarian) was 26.2 µM. It also gave a GI50 (T-47D breast) of 12.6 µM, a TGI (T-47D breast) of 25.6 µM and a GI50 (SW-620 colon) of 15.7 µM. The TGI (SW-620 colon) was 30.1 µM, the GI50 (UACC-62 melanoma) was 8.79 µM and the TGI (UACC-62 melanoma) was 21.7 µM. The GI50 (HCC-2998 colon) was 4 µM, the TGI (HCC-2998 colon) was 13.4 µM and the GI50 (SK-MEL-2 melanoma) was 13.2 µM. The TGI (SK-MEL-2 melanoma) was 26 µM, the GI50 (CCRF-CEM leukemia) was 5.34 µM and the TGI (CCRF-CEM leukemia) was 19.9 µM. For the same compound, the GI50 (HS 578T breast) was 11.8 µM, the TGI (HS 578T breast) was 28.3 µM and the GI50 (A549 NSCLC) was 7.77 µM. The TGI (A549 NSCLC) was 20.3 µM, the GI50 (UACC-257 melanoma) was 12.6 µM and the TGI (UACC-257 melanoma) was 25.4 µM. For the same compound, the GI50 (CAKI-1 renal) was 4.1 µM, the TGI (CAKI-1 renal) was 14.8 µM and the GI50 (UO-31 renal) was 13.6 µM. It also gave a TGI (UO-31 renal) of 26.9 µM, a GI50 (BT-549 breast) of 15.1 µM and a TGI (BT-549 breast) of 28.7 µM. It also gave a GI50 (HOP-62 NSCLC) of 14.3 µM, a TGI (HOP-62 NSCLC) of 27.4 µM and a GI50 (NCI-H460 lung) of 9.06 µM. The TGI (NCI-H460 lung) was 25.5 µM, the GI50 (SR leukemia) was 3.06 µM and the TGI (SR leukemia) was 14.3 µM. For the same compound, the GI50 (RXF 393 renal) was 6.96 µM, the TGI (RXF 393 renal) was 19.5 µM and the GI50 (NCI-H226 lung) was 13.3 µM. It also gave a TGI (NCI-H226 lung) of 26.7 µM, a GI50 (OVCAR-3 ovarian) of 7.37 µM and a TGI (OVCAR-3 ovarian) of 21.1 µM. For the same compound, the GI50 (LOX IMVI melanoma) was 6.36 µM, the TGI (LOX IMVI melanoma) was 19.6 µM and the GI50 (OVCAR-4 ovarian) was 10.8 µM. The TGI (OVCAR-4 ovarian) was 23.1 µM, the GI50 (NCI-H23 lung) was 14.4 µM and the TGI (NCI-H23 lung) was 27.4 µM. For the same compound, the GI50 (HL-60(TB) leukemia) was 3.6 µM, the TGI (HL-60(TB) leukemia) was 16 µM and the GI50 (NCI/ADR-RES ovarian) was 15.2 µM. The TGI (NCI/ADR-RES ovarian) was 29.4 µM, the GI50 (M14 melanoma) was 12.4 µM and the TGI (M14 melanoma) was 25.4 µM. It also gave a GI50 (SK-MEL-28 melanoma) of 11.7 µM, a TGI (SK-MEL-28 melanoma) of 24.2 µM and a GI50 (MDA-MB-231 breast) of 11.6 µM. It also gave a TGI (MDA-MB-231 breast) of 23.8 µM, a GI50 (SK-MEL-5 melanoma) of 14.4 µM and a TGI (SK-MEL-5 melanoma) of 27.8 µM. For the same compound, the GI50 (MCF7 breast) was 2.62 µM, the TGI (MCF7 breast) was 12.4 µM and the GI50 (SF-295 CNS) was 11.6 µM. The TGI (SF-295 CNS) was 24.1 µM, the GI50 (SNB-19 CNS) was 12.2 µM and the TGI (SNB-19 CNS) was 25.1 µM. The GI50 (PC-3 prostate) was 5.68 µM, the TGI (PC-3 prostate) was 18.5 µM and the GI50 (SF-268 CNS) was 10.3 µM. The TGI (SF-268 CNS) was 25.9 µM, the TGI (SNB-75 CNS) was 21.2 µM and the GI50 (OVCAR-8 ovarian) was 12.8 µM. For the same compound, the TGI (OVCAR-8 ovarian) was 26.3 µM, the GI50 (HOP-92 NSCLC) was 13 µM and the TGI (HOP-92 NSCLC) was 25.8 µM. It also gave a GI50 (DU-145 prostate) of 15 µM, a TGI (DU-145 prostate) of 28.5 µM and a GI50 (HT29 colon) of 5.08 µM. For the same compound, the TGI (HT29 colon) was 16.9 µM, the GI50 (RPMI-8226 leukemia) was 4.15 µM and the TGI (RPMI-8226 leukemia) was 22.1 µM. The GI50 (MOLT-4 leukemia) was 5.07 µM, the TGI (MOLT-4 leukemia) was 23.9 µM and the TGI (SK-OV-3 ovarian) was 28.7 µM. It also gave a GI50 (OVCAR-5 ovarian) of 14.9 µM, a TGI (OVCAR-5 ovarian) of 28.1 µM and a GI50 (786-0 renal) of 14.4 µM. The TGI (786-0 renal) was 27.5 µM, the GI50 (COLO 205 colon) was 10.6 µM and the TGI (COLO 205 colon) was 22.8 µM.
